Measured values published in paper PMC3261944, “The in Vitro Estrogenic Activities of Polyfluorinated Iodine Alkanes” (Environmental Health Perspectives, 2011).
Entries after “also recorded” stand apart in the source; their conditions may differ.

Experiments:
TFF1 (pS2) = assay: Expression of estrogen-responsive gene TFF1 (quantitative RT-PCR); type: cell-based, Human; details: MCF-7 cells, 48 hr, vs 0.1% ethanol; 50 μM PFBI, PFHxI, PFOI, PFBDI, PFOA, PFOC, PFOB, 1-iodohexane, 4:2 FTI, 6:2 FTI; 40 μM PFDI, PFDoI, PFODI, 8:2 FTI, 10:2 FTI; 20 μM PFHxDI; 100 pM E2
Procedure: (§1) RNA isolation and reverse transcription polymerase chain reaction (RT-PCR). MCF-7BUS cells were seeded in six-well plates at the density of 1.0 × 10^6 cells per well, starved in SF medium for 48 hr, and exposed to test compounds for 48 hr. First, cells were rinsed twice with cold phosphate-buffered saline, and total RNA was isolated using Trizol reagent (Invitrogen Inc., Carlsbad, CA, USA) following the manufacturer’s protocol. The 260 nm and 280 nm absorbance reading of total RNA was performed using a Nanodrop spectrophotometer (Thermo Scientific, Waltham, MA, USA). The concentration of RNA was quantified by the reading at 260 nm.
(§2) We used a two-step quantitative RT-PCR to quantify gene expression. Total RNA was converted to cDNA using M-MLV (Moloney murine leukemia virus) reverse transcriptase (Promega, Madison, WI, USA) with oligo dT(15), following the manufacturer’s instructions. The final cDNA solution was diluted five times with DNase/RNase-free water (Gibco). Quantitative PCR was performed with a Stratagene MX3005 thermal cycler (Stratagene, La Jolla, CA, USA). PCR reaction mixtures (25 μL) contained 12.5 μL GoTaq Green Master Mix (Promega), 2 μL diluted cDNA, and 0.2 μM sense/antisense primers. The thermal cycle was 5 min at 95°C, followed by 45 cycles of 15 sec at 95°C, 30 sec at 55°C, and 30 sec at 72°C. The primer sequences of early growth response protein 3 (EGR3) were derived from [Terasaka et al. (2004)]. We designed the primers of internal gene β-actin and trefoil factor 1 (TFF1; pS2) with Primer Premier 5 software (Premier Biosoft International, Palo Alto, CA, USA). The primer sequences were as follows: for β-actin (NM_001101), 5´-CACTCT[…]TCCTTCC-3´ (forward) and 5´-[…][…]-3´ (reverse); for EGR3 (NM_004430), 5´-CCATGATTC[…]-3´ (forward) and 5´-GTGGATCTGCTTGTCTTTGAATG-3´ (reverse); and for TFF1 (NM_003225), 5´-AGAAGCG […]-3´ (forward) and 5´-[…][…]-3´ (reverse). The quantification of target gene expression was based on a comparative cycle threshold (Ct) value. We normalized the expression level of each target gene to its reference gene β-actin. The fold change of the target genes was analyzed by the 2^−ΔΔCt method ([Livak and Schmittgen 2001]). We used melting curve analysis and agarose gel electrophoresis to verify the correct PCR products.

ER = molecular target: T1, ER (Homo sapiens, UniProt P03372); assay: MVLN assay (estrogen-responsive luciferase reporter transactivation); type: cell-based; details: for MVLN assay Maximum induction (%): percentage of the maximum induction (luciferase) of tested compound to that of E2, 2 days exposure; for Luciferase induction / estrogenic effect in the MVLN assay (in words): within the tested concentration ranges
T1 construct: This cell line was stably transfected with the luciferase reporter gene and estrogen-responsive element derived from the Xenopus vitellogenin A2 gene; endogenous in cells; host or cells: MVLN cells (provided by J.P. Giesy)
T1 sequence (P03372 1-595): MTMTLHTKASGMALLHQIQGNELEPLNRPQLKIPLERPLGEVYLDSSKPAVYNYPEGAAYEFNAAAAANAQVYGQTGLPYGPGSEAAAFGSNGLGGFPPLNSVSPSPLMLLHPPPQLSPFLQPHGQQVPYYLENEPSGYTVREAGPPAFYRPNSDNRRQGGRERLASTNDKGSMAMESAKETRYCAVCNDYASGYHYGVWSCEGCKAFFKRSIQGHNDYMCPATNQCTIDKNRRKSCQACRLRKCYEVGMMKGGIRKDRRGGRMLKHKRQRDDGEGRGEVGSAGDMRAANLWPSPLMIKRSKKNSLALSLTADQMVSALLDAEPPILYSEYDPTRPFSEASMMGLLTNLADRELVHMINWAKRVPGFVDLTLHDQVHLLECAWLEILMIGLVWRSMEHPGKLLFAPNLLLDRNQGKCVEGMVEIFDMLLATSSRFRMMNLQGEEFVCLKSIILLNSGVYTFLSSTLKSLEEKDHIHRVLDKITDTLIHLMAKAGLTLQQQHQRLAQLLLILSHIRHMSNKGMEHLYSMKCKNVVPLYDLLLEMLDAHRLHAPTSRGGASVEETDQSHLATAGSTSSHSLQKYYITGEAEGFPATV
Procedure: (§3) Cell culture. Human MCF-7BUS breast adenocarcinoma cells and MVLN cells were cultured in 100-mm culture dishes in a humidified atmosphere of 5% CO2 at 37°C. Cells were maintained in Dulbecco’s modified Eagle’s medium (DMEM)/F-12 (Hyclone, Logan, UT, USA) containing 10% fetal bovine serum, 100 U/mL streptomycin-penicillin, 2 mM L-glutamine, and 1% insulin-transferrin-selenium supplement (all from Gibco, Grand Island, NY, USA).
MVLN assay. The MVLN cell line was kindly provided by J.P. Giesy (Michigan State University, East Lansing, MI, USA). This cell line was stably transfected with the luciferase reporter gene and estrogen-responsive element derived from the Xenopus vitellogenin A2 gene. […] Cells were seeded in the interior 60 wells of a 96-well ViewPlate (Packard Instrument Company, Boston, MA, USA) at a density of 7 × 10^4 cells/well, starved in SF medium for 48 hr, and exposed to test compounds for 2 days. […] Luciferase activity was measured with the LucLite kit (Packard Instruments) according to the manufacturer’s protocol. We measured luminescence by microplate reader (Varioskan Flash) and integrated the luminescence signal for 10 sec. Total protein content was measured by the Bradford assay (Tiangen, Beijing, China) to normalize luminescent units. The results are given as relative luminescent unit per microgram protein. The maximal induction of positive control (corrected for solvent control, 0.1–0.2% ethanol) was set as 100%, and the responses of other chemicals were converted to a percentage of the maximum level. Three replicates were used in each experiment. The cytotoxicity of tested chemicals was examined by WST-1 kit in parallel and routinely observed under microscope to identify the exposure concentration range.
(§4) The concentration–response analyses were performed with four-parameter logistic curve regression analysis according to the following formula:
(§5) y = minimum + (maximum – minimum) ÷ [1 + (x/EC50)^Hill slope], [1]
(§6) where y is the response value, x is the log concentration of the test compound, and EC50 is the concentration that induces half of the maximum proliferation effect or luciferase activity.
EC50 values were calculated from this nonlinear regression model. EC20 were calculated as
ECx = [x/(100 – x)]^(1/Hill slope) × EC50, [2]

MCF-7BUS cells = assay: E-screen assay (MCF-7BUS cell proliferation, WST-1); type: cell-based, Human; details: for E-screen Maximum induction (%): percentage of the maximum proliferation effect of tested compound to that of E2, 6 days exposure; for Proliferation / estrogenic effect in the E-screen assay (in words): within the tested concentration ranges
Procedure: as §3
E-screen assay. MCF-7BUS cells were kindly provided by A.M. Soto and C. Sonnenschein (Tufts University School of Medicine, Boston, MA, USA). In response to ERα agonists, the mitotic effect leads to the proliferation of MCF-7BUS cells. […] Cells were trypsinized and plated into the interior 60 wells of 96-well plates at the density of 3,000 cells/well. Before each experiment, cells were starved in steroid-free (SF) medium for 48 hr to minimize the basal hormonal activity during assays. SF medium consisted of phenol red–free DMEM/F-12 (Hyclone) supplemented with 5% dextran-charcoal-treated fetal bovine serum (Hyclone), 100 U/mL streptomycin-penicillin, and 2 mM L-glutamine. […] We used a WST-1 proliferation kit (Roche Diagnostics, Mannheim, Germany) to assess proliferation after 6 days of exposure according to the kit instructions. The WST-1 assay is based on the enzymatic cleavage of the tetrazolium salt WST-1 to formazan by cellular mitochondrial dehydrogenases present in viable cells. The absorbance of the WST-1 solution was detected by a microplate reader (Varioskan Flash, Thermo Fisher Scientific, Waltham, MA, USA) at 450 nm, with the reference wave length at 690 nm. The cell proliferation effect was calculated from the solvent control (0.1% ethanol)-corrected absorbance and expressed as the percentage of maximal absorbance of the positive control. Three replicates were used in each experiment.
as §4, §5, §6
EC50 values were calculated from this nonlinear regression model. EC20 were calculated as […]

EGR3 = assay: Expression of estrogen-responsive gene EGR3 (quantitative RT-PCR); type: cell-based, Human; details: MCF-7 cells, 48 hr, vs 0.1% ethanol; 50 μM PFBI, PFHxI, PFOI, PFBDI, PFOA, PFOC, PFOB, 1-iodohexane, 4:2 FTI, 6:2 FTI; 40 μM PFDI, PFDoI, PFODI, 8:2 FTI, 10:2 FTI; 20 μM PFHxDI; 100 pM E2
Procedure: as §1, §2

vitellogenin [1] = tested on: vitellogenin; parameters: method as in Ishibashi et al. 2008; details: male medaka fish; ref Ishibashi et al. 2008; cited from earlier work
vitellogenin [2] = tested on: vitellogenin; parameters: method as in Liu et al. (2007); details: primary cultured tilapia hepatocytes; ref Liu et al. (2007); cited from earlier work
[3] = tested on: gap junction intercellular communication; parameters: method as in Hu et al. 2002; Upham et al. 1998; details: ref Hu et al. 2002; Upham et al. 1998; cited from earlier work

Compound | TFF1 mRNA expression, fold up-regulation (TFF1 (pS2)) | MVLN assay Maximum induction (%) (ER) | Luciferase induction / estrogenic effect in the MVLN assay (in words) (ER) | E-screen Maximum induction (%) (MCF-7BUS cells) | Proliferation / estrogenic effect in the E-screen assay (in words) (MCF-7BUS cells) | EGR3 mRNA expression, fold up-regulation (EGR3) | Vitellogenin induction (vitellogenin [1]) | Vitellogenin expression (vitellogenin [2]) | Inhibition of gap junction intercellular communication [3]
CCCCCCI [1-Iodohexane, reference compound] | did not affect the expression | NDe (The maximum relative luciferase activity was < 5%) | negative results | NDd (The maximum relative proliferation effect was < 7%) | negative results | did not affect the expression |  |  | 
FC(F)(F)C(F)(F)C(F)(F)C(F)(F)I [PFBI, 1-iodoperfluorobutane] | did not affect the expression |  |  | NDd (The maximum relative proliferation effect was < 7%) | did not show proliferation effects | did not affect the expression |  |  | 
FC(F)(F)C(F)(F)C(F)(F)C(F)(F)C(F)(F)C(F)(F)C(F)(F)C(F)(F)C(F)(F)C(F)(F)I [PFDI, 1-iodoperfluorodecane] | did not affect the expression |  |  | NDd (The maximum relative proliferation effect was < 7%) | did not show proliferation effects | did not affect the expression |  |  | 
FC(F)(F)C(F)(F)C(F)(F)C(F)(F)C(F)(F)C(F)(F)C(F)(F)C(F)(F)C(F)(F)C(F)(F)C(F)(F)C(F)(F)I [PFDoI, 1-iodoperfluorododecane] | did not affect the expression |  |  | NDd (The maximum relative proliferation effect was < 7%) | did not show proliferation effects | did not affect the expression |  |  | 
O=C(O)C(F)(F)C(F)(F)C(F)(F)C(F)(F)C(F)(F)C(F)(F)C(F)(F)F [PFOA, perfluorooctanoic acid, reference compound] |  |  |  | NDd (The maximum relative proliferation effect was < 7%) | negative results; also recorded: did not show proliferation effects |  | did not | induced | 
FC(F)(F)C(F)(F)C(F)(F)C(F)(F)C(F)(F)C(F)(F)C(F)(F)C(F)(F)Br [PFOB, 1-bromoperfluorooctane, reference compound] | did not affect the expression | NDe (The maximum relative luciferase activity was < 5%) | negative results | NDd (The maximum relative proliferation effect was < 7%) | negative results | did not affect the expression |  |  | 
FC(F)C(F)(F)C(F)(F)C(F)(F)C(F)(F)C(F)(F)C(F)(F)C(F)(F)F [PFOC, 1H-perfluorooctane, reference compound] | did not affect the expression | NDe (The maximum relative luciferase activity was < 5%) | negative results | NDd (The maximum relative proliferation effect was < 7%) | negative results | did not affect the expression |  |  | 
O=S(=O)(O)C(F)(F)C(F)(F)C(F)(F)C(F)(F)C(F)(F)C(F)(F)C(F)(F)C(F)(F)F [PFOS, perfluorooctane sulfonate] |  |  |  |  |  |  | did not | induced | significantly inhibits
O=S(=O)(O)C(F)(F)C(F)(F)C(F)(F)C(F)(F)F [perfluorobutanesulfonate] |  |  |  |  |  |  |  |  | did not show effects
O=S(=O)(O)C(F)(F)C(F)(F)C(F)(F)C(F)(F)C(F)(F)C(F)(F)F [perfluorohexanesulfonate] |  |  |  |  |  |  |  |  | did not show effects
